Here are results for ten compounds from patent US7638505B2, “Organophosphoric derivatives useful as anti-parasitic agents” (priority 2005, dated 2009).

Read-outs that look alike come from different tables or passages of the source.

In series [1] the test system is Plasmodium falciparum strain 3D7. As to the kind of experiment: in vitro anti-malarial activity, [3H]hypoxanthine incorporation, strain 3D7. The settings on record: P. falciparum strain 3D7, intraerythrocytic stages. The format is cell-based. The method, then:
(§1) The in vitro anti-malarial activity of some of the compounds prepared in example 1 was determined as follows. Intraerythrocytic stages of the Plasmodium falciparum strains 3D7 and Dd2 were respectively incubated with serial dilutions of the relevant compounds and the viability of the parasites was assessed by their ability to incorporate [^3H]hypoxanthine into DNA. Inhibition results were expressed as IC50.

The subject of series [2] is Plasmodium falciparum strain Dd2. As to the kind of experiment: in vitro anti-malarial activity, [3H]hypoxanthine incorporation, strain Dd2. In kind it is cell-based. The settings on record: for activity in the Dd2 cell line with respect to the reference compounds fosmidomycin and FR900098: same conditions, similar experimental setup. How it is done:
as §1

For a further series, the system named is Plasmodium falciparum. The settings on record: cited from earlier work.
A further series has as its system Plasmodium vinckei. Particulars: cited from earlier work.
For series [3] the following is noted: in vivo; cited from earlier work.
Series [4] has as its system acute, uncomplicated Plasmodium falciparum malaria. The settings on record: clinical trials, Gabon and Thailand; cited from earlier work.
The test system of series [5] is Plasmodium falciparum strain Dd2. The settings on record: P. falciparum Dd2, WO 2005/048715; cited from earlier work.
The mark [6] stands for this setting: Plasmodium falciparum, DD2, read-out: IC50 (μM) Dd2.

As to `COc1ccc(C(CCN(O)C=O)P(=O)(O)O)cc1` (centres unmarked) [Compound 1c, 3-(N-hydroxyformamido)-1-(4-methoxyphenyl)propylphosphonic acid], the results for the IC50 in series [1] (Plasmodium falciparum) and in series [2] (setting [6]) were 0.36 µM and 0.2 µM, respectively.

Consider `O=CN(O)CCC(c1ccc(Cl)c(Cl)c1)P(=O)(O)O` (centres unmarked) [Compound 1e, 3-(N-hydroxyformamido)-1-(3,4-dichlorophenyl)propylphosphonic acid], for which the IC50 was found to be 0.09 µM in series [1] (Plasmodium falciparum) and 0.028 µM in series [2] (Plasmodium falciparum, P. falciparum strain Dd2, intraerythrocytic stages, read-out: IC50 (μM) Dd2). The “in vitro antimalarial activity relative to fosmidomycin” value in series [2] (inhibition of parasite growth, strain not named in the sentence (table: Dd2 and 3D7)) is “twelve-fold more active than fosmidomycin”. The “in vitro antimalarial activity relative to FR900098” value in series [2] (strain not named in the sentence (table: Dd2 and 3D7)) is listed as “exceeds the activity of FR900098”.

Take `CC(=O)N(O)CCC(c1ccc(Cl)cc1)P(=O)(O)O` (centres unmarked) [Compound 2d, 3-(N-hydroxyacetamido)-1-(4-chlorophenyl)propylphosphonic acid]: the IC50 was found to be 0.35 µM in series [1] (Plasmodium falciparum) and 0.095 µM in series [2] (setting [6]).

On to `CC(=O)N(O)CCC(c1ccc(Cl)c(Cl)c1)P(=O)(O)O` (centres unmarked) [Compound 2e, 3-(N-hydroxyacetamido)-1-(3,4-dichlorophenyl)propylphosphonic acid], for which the IC50 in series [1] (Plasmodium falciparum) is 0.25 µM; in series [2] (setting [6]) it was 0.09 µM.

With `CC(=O)N(O)CCC(c1ccc(C#N)cc1)P(=O)(O)O.N.N` (centres unmarked) [Compound 104b, Bisammonium 3-[N-acetyl. N-(hydroxy)amino]-1-(4-cyanophenyl)-propylphosphonate], the “activity in the Dd2 cell line with respect to the reference compounds fosmidomycin and FR900098” value in series [2] is “substantial higher activity”.

Turning to `N#Cc1ccc(C(CCN(O)C=O)P(=O)(O)O)cc1` (centres unmarked) [Compound 105, 3-[N-formyl,N-(hydroxy)amino]-1-(4-cyanophenyl)-propylphosphonic acid], the “activity in the Dd2 cell line with respect to the reference compounds fosmidomycin and FR900098” value in series [2] was “substantial higher activity”.

As for `CC(=O)N(O)CCCP(=O)(O)O` [FR900098, reference compound], the half-inhibitory concentration (IC50) came out at 0.32 µM in series [1] and 0.18 µM in series [2] (P. falciparum strain Dd2, intraerythrocytic stages, read-out: IC50 (μM) Dd2). Moreover, the “activity relative to fosmidomycin against Plasmodium falciparum in vitro” value in the series with Plasmodium falciparum is reported as “approximately twice more active than fosmidomycin”. Moreover, in the series with Plasmodium vinckei, the “activity relative to fosmidomycin in Plasmodium vinckei mouse model” value is “approximately twice more active than fosmidomycin”.

Regarding `O=CN(O)CCCP(=O)(O)O` [fosmidomycin], it took 1.1 µM to reach half-maximal inhibition in series [1] (Plasmodium falciparum) (IC50). In series [3], the plasma half-life result is reported as “short” and the resorption rate entry was “moderate”. In series [4], the “treatment of patients suffering from acute, uncomplicated Plasmodium falciparum malaria” value is listed as “proved to be efficient”. For the same compound, the 50% inhibitory concentration (IC50) in series [2] (setting [6]) turned out to be 0.36 µM.

For the compound `CC(=O)N(O)CCC(c1ccccc1)P(=O)(O)O.OCCNCCO` (stereo not drawn) [α-phenyl-FR900098 diethanolammonium salt], the “IC50 value relative to FR900098” value in series [5] is “higher than FR900098”.

Take `O=CN(O)CCC(c1ccccc1)P(=O)(O)O.OCCNCCO` (stereo not drawn) [α-phenyl-fosmidomycin diethanolammonium salt]: the “IC50 value relative to fosmidomycin (times less)” value in series [5] was 4.5 times.
